# Reference: patent US20210055311A1, “SCREENING METHOD FOR ESTROGENIC AND ANTI-ESTROGENIC ACTIVITY” (BUNDESINSTITUT FÜR RISIKOBEWERTUNG, priority 2018, published 2021)
# Tests used:
# Assay type in all cases: cell-based, human
# MCF-7/vBOS cells = test: Adherens junction stability: cell rounding after EGTA-containing medium (live imaging); details: pre-treated 48 hours; EGTA 8×10^−3 M, 120 minutes; vs control cells
# Protocol: FIG. 9 provides a CellProfiler/CellProfiler-Analyst-based quantification (analogous to FIG. 7) showing the rate of cell rounding over the course of 120 minutes in MCF7/vBOS cells pre-treated with fulvestrant for 48 hours (dotted bars) compared to solvent control cells (black bars). Indicated time points depict time after application of EGTA-containing medium (EGTA, 8×10^−3 M) to disrupt adherens junctions. Biological replicates, n=3. Error bars, mean+/−s.e.m. Statistical testing, one-way ANOVA with Sidak's correction for multiple comparisons; *, p<0.05; **, p<0.01; ***, p<0.005; ****, p<0.001. Scale bar, 50 μm.
# In a further set of experiments, the inventors tested whether the anti-estrogen-mediated reorganization of adherens junctions likewise increased adherens junction stability in MCF-7/vBOS cells. Therefore, EGTA-containing medium (8×10^−3 M) was applied to both control cells and cells pre-treated for 48 hours with fulvestrant to disrupt homophilic E-Cadherin binding, and the fraction of rounded cells was monitored over the course of 120 minutes by live imaging. Quantification of rounded cells vs. non-rounded cells was done in analogous manner as described above in example 7 for quantification of continuous and discontinuous adherens junctions.
# [1] = system: MCF-7/vBOS breast cancer cells; test: Cell stiffness by atomic force microscopy (AFM) indentation
# Protocol: (§1) FIG. 10 illustrates that inhibition of ERα signaling increases tissue stability by modulating cell mechanics and cell motility. (A) Quantification of cell stiffness (Apparent elastic (Young's) modulus) by atomic force microscopy (AFM) indentation measurements on cells treated with fulvestrant for 48 hours (ERepl.1=0.7141±0.1193 kPa; ERepl.2=0.651±0.1407 kPa; ERepl.3=0.5938±0.1564 kPa; mean±s.d.) compared to solvent control cells (, ERepl.1=0.4841±0.1194 kPa; ERepl.2=0.4088±0.1513 kPa; ERepl.3=0.4660±0.1189 kPa). Biological replicates, n=3; 50-60 cells per condition. Boxes, 25th, 50th (median), and 75th percentiles. Whiskers, 10th and 90th percentiles. Cross, mean for each group. Statistical testing, Mann-Whitney tests; **, p values<0.01. (B) Quantification of cell motility (velocity) by manual tracking of cells treated with fulvestrant for 48 hours (VRepl.1=0.0613±0.0176 μm/min; VRepl.2=0.0553±0.0157 μm/min; VRepl.3=0.051±0.014 μm/min; mean±s.d.) compared to solvent control cells (VRepl.1=0.113±0.0237 μm/min; VRepl.2=0.0757±0.023 μm/min; VRepl.3=0.0827±0.0174 μm/min). Biological replicates, n=3; 3 fields with 10 cells each per replicate and condition were imaged every 10 minutes over the course of 16 h. Boxes, 25th, 50th (median), and 75th percentiles. Whiskers, 10th and 90th percentiles. Cross, mean for each group. Statistical testing, Mann-Whitney tests; **, p values<0.01.
# To test whether anti-estrogens also impact on the biomechanical properties of MCF-7/vBOS breast cancer cells, the inventors performed atomic force microscopy (AFM) indentation measurements on confluent monolayers. For this purpose, MCF7/vBos cells were grown and treated in 35 mm FluoroDish cell culture dishes (WPI) as described above. AFM indentation measurements were performed in CO2 Independent Medium (Gibco) at 37° C. using the NanoWizard 1 or 4 (JPK Instruments). Prior to measurements, tip-less Arrow-TLlsilicone cantilevers (Nanoworld) were equipped with polystyrene beads of 5 μm in diameter (microParticles GmbH, Germany) using epoxy glue, and calibrated using built-in procedures of the SPM software (JPK Instruments). The cantilever was positioned above the confluent epithelial monolayer and lowered with a speed of 10 μm/s. In each experiment, force-distance curves (force setpoint 2.5 nN) from 3-4 different positions per cell were collected. Force-distance curves were transformed into force-versus-tip sample separation curves according to Radmacher (Methods Cell Biol 2002; 68:67-90), and fitted with the Hertz/Sneddon model (27) for a spherical indenter using the JPK Data Processing software (JPK Instruments). […] Apparent elastic (Young's) moduli were determined using the Hertz model for a quadratic pyramid using the JPK Data Processing software (JPK Instruments).
# MCF-7/BOS cells = test: Adherens junction morphology upon fulvestrant in parental MCF-7/BOS cells; details: 10^−8 M, 48 h
# Protocol: (§2) Next, the inventors tried to reproduce the effects obtained with the cells as deposited under DSM ACC3321 with other conventional MCF-7 cells, namely MCF-7/BOS provided by Prof. Ana Soto (Tufts University School of Medicine, Boston, Mass., USA) and the MCF-7/ACC115 clone obtained from the Leibniz-Institut DSMZ-Deutsche Sammlung von Mikroorganismen and Zellkulturen GmbH (Braunschweig, Germany).
# (§3) Briefly, the MCF-7 cells were seeded and grown on glass coverslips in multi-well tissue culture plates (TPP) for 24 h to reach near 100% confluence and then treated for at least 48 h with 0.1% EtOH (solvent control) and the ERα antagonist fulvestrant (Sigma-Aldrich, CAS-No. 129453-61-8) at a concentration of 10^−8 M. During experiments, medium was exchanged on a daily basis. All experiments were performed at 37° C. with 5% CO2 in reduced-serum medium (phenol red-free DMEM (Gibco), 5% FBS (Biochrom, S 0615, LOT1353 W), 1% glutamine, 100 μg/ml streptomycin/100 U/ml penicillin (Biochrom)).
# [2] = system: MCF-7/vBOS breast cancer cells; test: Cell motility by manual tracking in confluent monolayer after scratch
# Protocol: as §1
# Given that anti-estrogens increase adherens junction stability and cell rigidity, the inventors asked whether cell motility was likewise affected.
# MCF-7/ACC115 cells = test: Adherens junction morphology upon fulvestrant in MCF-7/ACC115 cells; details: 10^−8 M, 48 h
# Protocol: as §2, §3
# [3] = system: MCF7/vBOS cells (DSM ACC3321); test: Formation of discontinuous basolateral adherens junctions upon anti-estrogen exposure (E-Cadherin immunofluorescence)
# [4] = treated 48 hours, mean±s.d., replicate 1
# [5] = treated 48 hours, mean±s.d., replicate 2
# [6] = treated 48 hours, mean±s.d., replicate 3
structure (smiles),measurement,setting,value
C[C@]12CC[C@@H]3c4ccc(O)cc4C[C@@H](CCCCCCCCC[S+]([O-])CCCC(F)(F)C(F)(F)F)[C@H]3[C@@H]1CC[C@@H]2O (stereo partly drawn) [Fulvestrant],rate of cell rounding,MCF-7/vBOS cells,significantly reduced
same,cell rigidity,"[1]; throughout the cell surface and at junctional regions, vs solvent control",significantly elevated
same,"Apparent elastic (Young's) modulus, Repl.1",[1]; [4],0.7141±0.1193 kPa
same,"Apparent elastic (Young's) modulus, Repl.2",[1]; [5],0.651±0.1407 kPa
same,"Apparent elastic (Young's) modulus, Repl.3",[1]; [6],0.5938±0.1564 kPa
same,adherens junctions morphology in absence and presence of fulvestrant,MCF-7/BOS cells,same continuous adherens junctions morphology
same,"cell motility (velocity), Repl.1",[2]; [4],0.0613±0.0176 μm/min
same,"cell motility (velocity), Repl.2",[2]; [5],0.0553±0.0157 μm/min
same,"cell motility (velocity), Repl.3",[2]; [6],0.051±0.014 μm/min
same,velocity of cells,[2]; vs solvent control,significantly reduced
same,length of cell trajectories,"[2]; vs solvent control, data not shown",significantly reduced
same,adherens junctions morphology in absence and presence of fulvestrant,MCF-7/ACC115 cells,same continuous adherens junctions morphology
same,"change in adherens junctions morphology on staining β-Catenin, α-Catenin, p120-Catenin or cortical actin cytoskeleton","[3]; 10^−8 M, at least 48 h",also observable
same,manifestation of phenotype after short exposure,"[3]; exposure for only 2 hours, read after 48 hours in media w/o fulvestrant",lead to manifestation of the discontinuous basolateral adherens junctions phenotype
same,stability of discontinuous adherens junctions independent of the presence of fulvestrant,"[3]; fulvestrant 24 hours, then 24 or 48 hours in fulvestrant-free medium",at least 48
